From US20220041588A1, “SUBSTITUTED IMIDAZO[1,2-A]PYRIDINE AND [1,2,4]TRIAZOLO[1,5-A]PYRIDINE COMPOUNDS AS RET KINASE INHIBITORS” (FOCHON PHARMACEUTICALS, LTD., priority 2018, published 2022) come the findings set out here.

The test system of the assay is TT (RET C634W) cells. Kind of assay: Cell proliferation assay (MTS), TT cells. The format is cell-based. As to conditions: Homo sapiens, TT, 72 h, 72 h incubation, MTS readout. The procedure: MTS testing kit was purchased from Promega. The RPMI-1640, F12, F12K, Fetal bovine serum and Penicillin-Streptomycin were purchased from BI. Glutamine and Dimethyl sulfoxide (DMSO) were purchased from Sigma. TT cells were cultured in F12K supplemented with 10% FBS and LC-2/ad cells were cultured in HamF12: RPMI1640 (1:1) supplemented with 10% FBS and 2 mM Glutamine.
To investigate whether a compound is able to inhibit the activity of RET fusion and/or mutation in cells, a mechanism-based assay using TT (RET C634W) and LC-2/ad (CCDCl6-RET) cell lines was developed. In this assay, the inhibition of RET fusion and/or mutation was reflected by the inhibition of cell proliferation of TT and LC-2/ad cells. Cells were plated into 96-well plates at the optimized cell density (TT: 5000 cells/well; LC-2/ad: 5000 cells/well). Plates were incubated at 37° C., with 5% CO2 for 24 h. Compounds were serially diluted and added to the plates with the final concentrations as 10000, 3333.3, 1111.1, […], 123.5, 41.2, 13.7, 4.6 and 1.5 nM. Plates were incubated at 37° C., with 5% CO2 for 72 h. An aliquot of 20 μL MTS/100 μL medium mixture solution were added to each well and the plates were incubated for exactly 2 h. The reaction was stopped by adding 25 μL 10% SDS to each well. The absorbance was measured by a microplate reader at 490 nm and 650 nm (reference wavelength). IC50 was calculated using GraphPad Prism 5.0.

As to `Cn1cc(-c2cc(-c3ccc(N4CCN(Cc5cc(F)ccc5F)CC4)nc3)n3c(C#N)cnc3c2)cn1` [Example 8, 5-(6-(4-(2,5-difluorobenzyl)piperazin-1-yl)pyridin-3-yl)-7-(1-methyl-1H-pyrazol-4-yl)imidazo[1,2-a]pyridine-3-carbonitrile], the IC50 (as a rule, the midpoint of a concentration-inhibition curve) turned out to be 39 nM. This counts as double-digit nanomolar.

With `Cc1cccnc1CN1CCN(c2ccc(-c3cc(-c4cnn(C)c4)cc4ncc(C#N)n34)cn2)CC1` [Example 9, 7-(1-methyl-1H-pyrazol-4-yl)-5-(6-(4-((3-methylpyridin-2-yl)methyl)pi-perazin-1-yl)pyridin-3-yl)imidazo[1,2-a]pyridine-3-carbonitrile], half-maximal inhibition (IC50) required 79 nM.

`C[C@@H](C(=O)N1CCN(c2ccc(-c3cc(-c4cnn(C)c4)cc4ncc(C#N)n34)cn2)CC1)c1ccccc1` [Example 10, (R)-7-(1-methyl-1H-pyrazol-4-yl)-5-(6-(4-(2-phenylpropanoyl)piperazin-1-yl)pyridin-3-yl)imidazo[1,2-a]pyri-dine-3-carbonitrile] returned an IC50 of 6 nM.

As for `COc1ccc(CN2CCN(c3ccc(-c4nc(-c5cnn(C)c5)cc5ncc(C#N)n45)cn3)CC2)nc1` [Example 24, 5-(6-(4-((5-methoxypyridin-2-yl)meth-yl)piperazin-1-yl)pyridin-3-yl)-7-(1-methyl-1H-pyrazol-4-yl)imidazo[1,2-c]pyrimidine-3-carbonitrile], the IC50 worked out at 86 nM.

As for `Cn1cc(-c2cc3ncc(C#N)n3c(-c3ccc(N4CCN(Cc5ccccc5)CC4)nc3)n2)cn1` [Example 25, 5-(6-(4-benzylpiperazin-1-yl)pyridin-3-yl)-7-(1-methyl-1H-pyrazol-4-yl) imidazo[1,2-c]pyrimidine-3-carbonitrile], the IC50 was found to be 79 nM.

`CN(C)c1ccc(CN2CCN(c3ccc(-c4cc(-c5cnn(C)c5)cc5ncc(C#N)n45)cn3)CC2)cn1` [Example 28, 5-(6-(4-((6-(dimethylamino)pyridin-3-yl)methyl)piperazin-1-yl)pyridin-3-yl)-7-(1-methyl-1H-pyrazol-4-yl)im-idazo[1,2-a]pyridine-3-carbonitrile] returned an IC50 of 79 nM.

`COc1ccccc1CN1CCN(c2ccc(-c3cc(-c4cnn(C)c4)cc4ncc(C#N)n34)cn2)CC1` [Example 29, 5-(6-(4-(2-methoxybenzyl)piperazin-1-yl)pyridin-3-yl)-7-(1-methyl-1H-pyrazol-4-yl)imidazo[1,2-a]pyridine-3-carbonitrile]: the IC50 turned out to be 84 nM.

With `Cn1cc(-c2cc(-c3ccc(N4CCN(Cc5c(F)cccc5F)CC4)nc3)n3c(C#N)cnc3c2)cn1` [Example 35, 5-(6-(4-(2,6-difluorobenzyl)piperazin-1-yl)pyridin-3-yl)-7-(1-methyl-1H-pyrazol-4-yl)imidazo[1,2-a]pyridine-3-carbonitrile], the IC50 turned out to be 1 nM.

As to `Cn1cc(-c2cc(-c3ccc(N4CCN(Cc5ccc6ncn(C)c6c5)CC4)nc3)n3c(C#N)cnc3c2)cn1` [Example 36, 5-(6-(4-((1-methyl-1H-benzo[d]imid-azol-6-yl)methyl)piperazin-1-yl)pyri-din-3-yl)-7-(1-methyl-1H-pyrazol-4-yl)imidazo[1,2-a]pyridine-3-carboni-trile], the IC50 was determined as 62 nM.

Consider `CN(C)[C@@H](C(=O)N1CCN(c2ccc(-c3cc(-c4cnn(C)c4)cc4ncc(C#N)n34)cn2)CC1)c1cccc(Cl)c1` [Example 39, (R)-5-(6-(4-(2-(3-chlorophenyl)-2-(dimethylamino)acetyl)piperazin-1-yl)pyridin-3-yl)-7-(1-methyl-1H-pyrazol-4-yl)imidazo[1,2-a]pyridine-3-car-bonitrile], for which inhibition was half-maximal at 39 nM (IC50).

As for `CN(C)C(C(=O)N1CCN(c2ccc(-c3cc(-c4cnn(C)c4)cc4ncc(C#N)n34)cn2)CC1)c1ccc(F)c(Cl)c1` (stereo not shown) [Example 41, 5-(6-(4-(2-(3-chloro-4-fluorophenyl)-2-(dimethylamino)acetyl)piperazin-1-yl)pyridin-3-yl)-7-(1-methyl-1H-pyrazol-4-yl)imidazo[1,2-a]pyridine-3-carbonitrile], the IC50 came to 12 nM.

In turn, `Cc1ccc(CC(=O)N2CCN(c3ccc(-c4cc(-c5cnn(C)c5)cc5ncc(C#N)n45)cn3)CC2)nc1` [Example 47, 7-(1-methyl-1H-pyrazol-4-yl)-5-(6-(4-(2-(5-methylpyridin-2-yl)acetyl)pi-perazin-1-yl)pyridin-3-yl)imidazo[1,2-a]pyridine-3-carbonitrile] registered an IC50 of 88 nM.

On to `COc1ccc(CN2C3CC2CN(c2ccc(-c4cc(OCCN=S(C)(C)=O)cc5ncc(C#N)n45)cn2)C3)cn1` [Example 58, 7-(2-((Dimethyl(oxo)-λ^6-sulfanylidene)amino)ethoxy)-5-(6-(6-((6-methoxypyridin-3-yl)methyl)-3,6-diazabicyclo[3.1.1]heptan-3-yl)pyridin-3-yl)imidazo[1,2-a]pyridine-3-carbonitrile], for which the IC50 worked out at 120 nM. This IC50 and that of the compound before are within 1.5-fold of each other.

The compound `[2H]C([2H])([2H])Oc1ccc(OC2CCN(c3ccc(-c4cc(OCC(C)(C)O)cc5ncc(C#N)n45)cn3)CC2)cn1` [Example 61, 7-(2-Hydroxy-2-methylpropoxy)-5-(6-(4-((6-(methoxy-d3)pyridin-3-yl)oxy)piperidin-1-yl)pyridin-3-yl)imidazo[1,2-a]pyridine-3-carbonitrile] gave an IC50 of 15 nM.

As to `COc1ccc(OC2CCN(c3ccc(-c4cc(OCCN=S(C)(C)=O)cc5ncc(C#N)n45)cn3)CC2)cn1` [Example 70, 7-(2-((dimethyl(oxo)-λ^6-sulfanylidene)ami-no)ethoxy)-5-(6-(4-((6-methoxypyridin-3-yl)oxy)piperidin-1-yl)pyridin-3-yl)imid-azo[1,2-a]pyridine-3-carbonitrile], 71 nM corresponded to half-maximal inhibition (IC50).

Take `Cc1ccc(OC2CCN(c3ccc(-c4cc(OCC(C)(C)O)cc5ncc(C#N)n45)cn3)CC2)cn1` [Example 71, 7-(2-hydroxy-2-methylpropoxy)-5-(6-(4-((6-methylpyridin-3-yl)oxy)piperidin-1-yl)pyridin-3-yl)imidazo[1,2-a]pyridine-3-carbonitrile]: the IC50 stood at 22 nM.

Turning to `CC(C)(O)COc1cc(-c2ccc(N3CCC(Oc4ccc(C5CC5)nc4)CC3)nc2)n2c(C#N)cnc2c1` [Example 72, 5-(6-(4-((6-cyclopropylpyridin-3-yl)oxy)piperidin-1-yl)pyridin-3-yl)-7-(2-hydroxy-2-methylpropoxy)imidazo[1,2-a]pyridine-3-carbonitrile], the IC50 is 17 nM.

In turn, `CCc1ccc(OC2CCN(c3ccc(-c4cc(OCC(C)(C)O)cc5ncc(C#N)n45)cn3)CC2)cn1` [Example 73, 5-(6-(4-((6-ethylpyridin-3-yl)oxy)piperidin-1-yl)pyridin-3-yl)-7-(2-hydroxy-2-meth-ylpropoxy)imidazo[1,2-a]pyridine-3-car-bonitrile] gave an IC50 of 1 nM.

`Cc1ccc(OC2CCN(c3ccc(-c4cc(OCC5(O)CC5)cc5ncc(C#N)n45)cn3)CC2)cn1` [Example 74, 7-((1-hydroxycyclopropyl)methoxy)-5-(6-(4-((6-methylpyridin-3-yl)oxy)piperidin-1-yl)pyridin-3-yl)imidazo[1,2-a]pyridine-3-carbonitrile] returned an IC50 of 23 nM.

The compound `CCc1ccc(OC2CCN(c3ccc(-c4cc(OCC5(O)CC5)cc5ncc(C#N)n45)cn3)CC2)cn1` [Example 75, 5-(6-(4-((6-ethylpyridin-3-yl)oxy)piperidin-1-yl)pyridin-3-yl)-7-((1-hydroxycyclo-propyl)methoxy)imidazo[1,2-a]pyridine-3-carbonitrile] returned an IC50 of 1 nM.

`N#Cc1cnc2cc(OCC3(O)CC3)cc(-c3ccc(N4CCC(Oc5ccc(C6CC6)nc5)CC4)nc3)n12` [Example 76, 5-(6-(4-((6-cyclopropylpyridin-3-yl)oxy)piperidin-1-yl)pyridin-3-yl)-7-((1-hydroxy-cyclopropyl)methoxy)imidazo[1,2-a]pyr-idine-3-carbonitrile] came in with an IC50 of 5 nM. Against the preceding compound, the IC50 is about 5-fold higher.

The compound `CC(C)(O)COc1cc(-c2ccc(N3CCC(Oc4ccc(C(F)F)nc4)CC3)nc2)n2c(C#N)cnc2c1` [Example 77, 5-(6-(4-((6-(difluoromethyl)pyridin-3-yl)oxy)piperidin-1-yl)pyridin-3-yl)-7-(2-hy-droxy-2-methylpropoxy)imidazo[1,2-a]pyr-idine-3-carbonitrile] registered an IC50 of 48 nM.

Compound `N#Cc1cnc2cc(OCC3(O)CC3)cc(-c3ccc(N4CCC(Oc5ccc(C(F)F)nc5)CC4)nc3)n12` [Example 78, 5-(6-(4-((6-(difluoromethyl)pyridin-3-yl)oxy)piperidin-1-yl)pyridin-3-yl)-7-((1-hy-droxycyclopropyl)methoxy)imidazo[1,2-a]pyridine-3-carbonitrile] returned an IC50 of 13 nM.

Turning to `CCOc1ccc(OC2CCN(c3ccc(-c4cc(OCC5(O)CC5)cc5ncc(C#N)n45)cn3)CC2)cn1` [Example 79, 5-(6-(4-((6-ethoxypyridin-3-yl)oxy)piperi-din-1-yl)pyridin-3-yl)-7-((1-hydroxycyclo-propyl)methoxy)imidazo[1,2-a]pyridine-3-carbonitrile], the IC50 amounted to 1 nM.

As for `C#Cc1ccc(OC2CCN(c3ccc(-c4cc(OCC(C)(C)O)cc5ncc(C#N)n45)cn3)CC2)cn1` [Example 80, 5-(6-(4-((6-ethynylpyridin-3-yl)oxy)piper-idin-1-yl)pyridin-3-yl)-7-(2-hydroxy-2-methylpropoxy)imidazo[1,2-a]pyridine-3-carbonitrile], inhibition was half-maximal at 7 nM (IC50).
